Where “and” joins values, the source holds several entries; their conditions need not be identical. Identical values can stand only once. Like-named read-outs stand apart in the source and are kept apart here.
Assays:
[1] = tested on: Lactobacillus iners (LMG 18916); assay type: cell-based
[2] = tested on: Lactobacillus crispatus (LMG 12005); assay type: cell-based
[3] = tested on: TSST-1 toxin produced by S. aureus; assay type: cell-based, Staphylococcus aureus MN 8
[4] = tested on: Lactobacillus gasseri (ATCC 9857); assay type: cell-based
[5] = tested on: Staphylococcus aureus MN 8; assay type: cell-based

With CC(O)C(=O)[O-].CC(O)C(=O)[O-].[Ca+2] (stereo not shown) [Calcium lactate] the “Change in L. iners vs. control” value [1] was less than 1 log, the “Change in L. cripatus vs. control” value [2] was less than 1 log and the “% TSST-1 Change (ug/ml) vs. control” value [3] was 49% and 89% and 90%. For the same molecule, the “% TSST-1 Change (ug/ml/mM) vs. control” value [3] was 5.6% and 1.7%, the “Change in L. gasseri vs. control” value [4] was less than 1 log and the “Change in S. Aureus CFU/ml vs. control” value [5] was less than 1 log.
[Ca+2].[Cl-].[Cl-] [Calcium chloride] was tested, and the “% TSST-1 Change (ug/ml) vs. control” value [3] was 82%, the “% TSST-1 Change (ug/ml/mM) vs. control” value [3] was 2.5% and 1.1% and the “% TSST-1 Change (ug/ml) vs. control” value ([3]; 18-20 h, 37° C.) was 37%. The “Change in S. Aureus CFU/ml vs. control” value [5] was “≦1 log”.
For [Cl][Cu][Cl] [Copper chloride], the “Change in S. Aureus CFU/ml vs. control” value [5] was greater than 3 log.
For [Cl-].[Cl-].[Mg+2] [Magnesium chloride], the “% TSST-1 Change (ug/ml) vs. control” value [3] was 47% and the “Change in S. Aureus CFU/ml vs. control” value [5] was “≦1 log”.
In the case of O=C1O[C@H]([C@@H](O)CO)C(O)=C1O [Calcium ascorbate, calcium ascorbate], the “Change in S. Aureus CFU/ml vs. control” value [5] was greater than 2 log and the “growth of S. aureus relative to controls” value [5] was “virtually eliminate the growth”.
For [Cl-].[Cl-].[Zn+2] [Zinc chloride], the “Change in S. Aureus CFU/ml vs. control” value [5] was greater than 2 log.
With [Cl][Fe][Cl] [Ferrous chloride] the “Change in S. Aureus CFU/ml vs. control” value [5] was greater than 2 log.
For CCCCCCCCCCCCCCCCCC(=O)O [Calcium stearate, calcium stearate], the “% TSST-1 Change (ug/ml) vs. control” value [3] was 65% and 62% and the “% TSST-1 Change (ug/ml/mM) vs. control” value [3] was 6.6% and 0.6%.
